This note sets out measurements from patent US20260000620A1, “ORAL DOSAGE FORMS” (priority 2022, published 2026).

The nature of data set [1]: in vivo. The conditions noted are these: beagle, dog, iv.
Procedure: (§1) A dog PK study with terlipressin capsules was carried out essentially as described in Example 2. The key differences are as follows:
(§2) Test article administration: Animals were fasted for at least 12 hours prior to dosing and through the first 4 hours of blood sample collection (food was returned within 30 minutes following collection of the last blood sample at the 4 hour collection interval).
(§3) Intravenous administration: Animals in Phase 1 (groups 1 and 2) received a single iv of glypressin of 0.04 or 0.2 mg terlipressin base (0.24 or 1.2 mL/animal, respectively). Dosing was performed by 1 minute slow injection via the cephalic vein, using a catheter.
(§4) Blood collection: Blood samples (approximately 3 mL/sample) were collected from the jugular vein in the following time points:
(§5) Blood samples were placed into tubes containing K2EDTA. The samples were centrifuged under refrigerated (2 to 8° C.) conditions within 30 minutes of sample collection and the resulting plasma was separated and split into two approximately equal aliquots. Each plasma sample was placed into pre-chilled tubes that were placed on dry ice until frozen at −60° to −90° C. Bioanalysis was performed for plasma concentrations of both terlipressin and LVP.
(§6) Bioanalysis of plasma samples was performed using a LC-MS/MS method for quantitation of terlipressin and [Lys8]—Vasopressin in Dog Plasma.
The conditions of data set [2]: dog, in vivo, iv.
Procedure: as §1, §2, §3, §4, §5, §6

Positions of bridges follow the written chain, without caps; N, C: chain ends. Residues, ends and D or L forms follow the SMILES beside them.

Regarding `NCCCC[C@H](NC(=O)[C@@H]1CCCN1C(=O)[C@@H]1CSSC[C@H](NC(=O)CNC(=O)CNC(=O)CN)C(=O)N[C@@H](Cc2ccc(O)cc2)C(=O)N[C@@H](Cc2ccccc2)C(=O)N[C@@H](CCC(N)=O)C(=O)N[C@@H](CC(N)=O)C(=O)N1)C(=O)NCC(N)=O` [terlipressin, triglycyl lysine vasopressin] (H-GGGCYFQNCPKG-NH2; disulfide 4-9), in data set [1] (0.04 mg), the area under the curve AUC(0-inf) (usually the area under the concentration-time curve extrapolated to infinity) turned out to be 1.77 ng·h/mL; the AUC(0-t) – broadly, exposure summed from dosing to a finite time, without extrapolation to infinity – amounted to 1.82 ng·h/mL; the Cmax (commonly the maximum level reached in the sampled fluid or tissue) was determined as 12.6 ng/mL; the Tmax (in general, the time at which the peak concentration occurs) amounted to 4.98 min. For the same compound, the half-life (in general, the time needed for the level to fall by half in the phase considered) in data set [1] (0.04 mg) is 4.44 min. In addition, in data set [1] (0.2 mg), the AUC(0-inf) stood at 9.14 ng·h/mL, the AUC(0-t) is 9.13 ng·h/mL, the highest level (Cmax) was 59.1 ng/mL and the Tmax turned out to be 4.02 min. In data set [1] (0.2 mg), this compound had a half-life of 13.9 min. Also, in data set [2], the “increase of both LVP AUCs from 0.04 mg to 0.2 mg” value was 3.7 fold.
